According to patent publication US8604195B2, “Substituted bicyclic piperidinyl- and piperazinyl-sulfonamides useful to inhibit 11β-hydroxysteroid dehydrogenase type-1” (Merck Sharp & Dohme Corp., priority 2007, dated 2013):

Columns and labels:
[1] = biological target: Mouse 11-β-HSD1 (Mus musculus, UniProt P50172); experiment: 11β-HSD1 enzymatic activity, 3H-cortisone SPA, mouse enzyme; conditions: Mouse 11-β-HSD1 IC50 (nM), membrane, 125 nM 3H-cortisone, 1 hr room temperature
Experimental: (§1) The reaction was incubated at room temperature for 1 hr before it was stopped by addition of 50 μM buffer containing 20 mM NaPO4 pH 7.5, 30 μM 18β-glycyrrhetinic acid, 1 μg/ml monoclonal anti-cortisol antibody (Biosource) and 2 mg/ml anti-mouse antibody coated scintillation proximity assay (SPA) beads (Amersham Bioscience). The mixture was incubated at room temperature for 2 hrs with vigorous shaking and analyzed on TopCount scintillation counter.

[2] = biological target: Human 11-β-HSD1 (Homo sapiens, UniProt P28845); experiment: 11β-HSD1 enzymatic activity, 3H-cortisone SPA, human enzyme; conditions: Human 11-β-HSD1 IC50 (nM), membrane, 125 nM 3H-cortisone, 1 hr room temperature
Human 11-β-HSD1, sequence (P28845 whole entry): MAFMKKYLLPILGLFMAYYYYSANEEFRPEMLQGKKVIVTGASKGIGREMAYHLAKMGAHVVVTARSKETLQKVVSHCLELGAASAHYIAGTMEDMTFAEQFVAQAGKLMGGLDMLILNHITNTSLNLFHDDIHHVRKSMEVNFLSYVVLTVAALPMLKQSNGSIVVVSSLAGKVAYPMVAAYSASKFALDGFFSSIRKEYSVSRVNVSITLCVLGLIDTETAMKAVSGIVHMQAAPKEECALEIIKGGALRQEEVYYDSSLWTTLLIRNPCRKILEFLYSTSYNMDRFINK
Experimental: as §1

Mouse 11-β-HSD1, sequence (P50172 whole entry): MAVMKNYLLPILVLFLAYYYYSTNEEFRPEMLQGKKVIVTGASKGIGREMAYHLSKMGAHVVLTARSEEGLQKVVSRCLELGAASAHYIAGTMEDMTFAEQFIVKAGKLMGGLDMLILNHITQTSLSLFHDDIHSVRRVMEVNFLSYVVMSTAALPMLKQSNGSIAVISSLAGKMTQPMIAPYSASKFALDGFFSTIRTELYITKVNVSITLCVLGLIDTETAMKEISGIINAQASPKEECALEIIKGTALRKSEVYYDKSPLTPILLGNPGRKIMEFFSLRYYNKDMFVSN

Compound | IC50 [1] [nM] | IC50 [2] [nM]
CC(C)(C)c1ccc(S(=O)(=O)N2C3CCC2CC(Oc2ccc(C#N)cn2)C3)cc1 (single isomer, unassigned) [Compound 5] | 23800 | > 10000
CC(C)(C)c1ccc(S(=O)(=O)N2C3CCC2CC(Oc2ccc(C#N)cn2)C3)cc1 (single isomer, unassigned) [Compound 6] | 5590 | 413
CC(C)(C)c1ccc(S(=O)(=O)N2C3CCC2CC(O)(Cc2ccccc2)C3)cc1 (stereo not drawn) [Compound 15] | 114 | 740
CC(C)(C)c1ccc(S(=O)(=O)N2C3CCC2CC(O)(c2ccccc2)C3)cc1 (stereo not drawn) [Compound 16] | 138 | –
CCC(C)(C)c1ccc(S(=O)(=O)N2C[C@@H]3C[C@H]2CN3C)cc1 [Compound 21] | 258 | 333
